A short description of data set [1]: Ultrasound delivery of riboflavin into ex vivo pig corneas. Set-up: species or system porcine. The procedure: For example, a riboflavin molecule may be delivered into a cornea by ultrasound. An ex vivo study was conducted of delivering small molecules into porcine corneal tissue. The small molecules used was riboflavin. The small molecules may have a molecular weight of about 376 g/mol or less. By using ultrasound at 40 kHz, at least 15 μg/mL of riboflavin was delivered into the deep corneal stromal tissue.
An illustration is provided of riboflavin 1 mg/mL delivered into ex vivo pig corneas. The riboflavin concentration in μg/mL is shown for different circumstances, such as epithelium debrided (Epi-off) cornea with 30 minutes riboflavin contact, Epi-Off with 3 cycles of 90 seconds ultrasound+15 minutes breaks in between and Epi-Off with 3 cycles of 90 seconds ultrasound+5 minutes break in between. 0.1% Riboflavin solution, Peschke D was delivered in ex-vivo pig corneas. The 15 μg/mL safety threshold is exceeded by applying 3 cycles of 90 seconds ultrasound with 5 minute breaks in between.

Data set [2] has as its system experimental autoimmune uveitis (EAU). The data set can be described thus: In vivo delivery of dexamethasone into mice eyes for treatment of experimental autoimmune uveitis (ultrasound versus intravitreal injection). The procedure: The procedure relates to an in vivo study of delivering small molecules into mice eyes for treatment of experimental autoimmune uveitis (EAU). The small molecules used were dexamethasone, with of a molecular weight of about […]. For a given animal subject, the drug was delivered via intravitreal injection (10 μg in 1 μL balanced salt solution), to the left eye. For the right eye, the drug (10 μg in 1 μL balanced salt solution, repeat 3 times) was delivered by 40 kHz ultrasound.
A timeline is illustrated of the experimental procedure. EAU mice were provided as described. The final n=2, as one mouse was dead on day 10 during the first treatment. On day 0, EAU induction occurred. Baseline imaging by confocal scanning laser ophthalmology (cSLO) and optical coherence tomography (OCT) occurred on day 0. On day 10, the drug was applied via ultrasound on the right eye. The drug was applied via intravitreal injection to the left eye. On day 13, imaging was conducted via cSLO and OCT. On days 13, 17, and 20, the drug was delivered to the right eye via ultrasound. On day 21, the mice were sacrificed for histology. Imaging was conducted by cSLO and OCT.

Data set [3] is described as follows: Ultrasound delivery of Riboflavin-5-Phosphate into porcine corneas, fluorescent measurement of extract. Conditions: epi-off; 0.1% solution; ultrasound 40 kHz, mechanical index 0.2, for 5 minutes or less. The procedure: Riboflavin-5-Phosphate (R5P), 1.5 mL, 0.1% solution was applied to a porcine eyeball, epi-off. The ultrasound parameters were 40 kHz, mechanical index 0.2. The cornea was in full contact with R5P over indicated time period. The cornea was excised and weighed. Extracted supernatant with R5P was used for fluorescent measurement.

Data on three molecules can be found in patent US20260033988A1, “SYSTEM AND METHOD FOR ULTRASOUND-ENHANCED DELIVERY OF DRUGS” (Sonikure Holdings Limited, priority 2016, published 2026).

As for `Cc1cc2nc3c(=O)[nH]c(=O)nc-3n(C[C@H](O)[C@H](O)[C@H](O)CO)c2cc1C` [riboflavin], the “riboflavin concentration in cornea versus 15 μg/mL safety threshold” value in data set [1] (ex vivo pig cornea, Epi-Off, 0.1% riboflavin solution, 3 cycles of 90 seconds ultrasound with 5 minute breaks in between) is > 15 µg/mL. Further, the “riboflavin delivered into the deep corneal stromal tissue” value in data set [1] (ex vivo porcine cornea, ultrasound at 40 kHz) is reported as “at least 15 μg/mL”.
`C[C@@H]1C[C@H]2[C@@H]3CCC4=CC(=O)C=C[C@]4(C)[C@@]3(F)[C@@H](O)C[C@]2(C)[C@@]1(O)C(=O)CO` [dexamethasone]: in data set [2] (left eye, intravitreal injection 10 μg in 1 μL, retinal change still existed at day 21), the “retina injury (FFA photo and OCT sections)” value is “retina injury caused by intravitreal injection”. In addition, the “retina injury (fundus photos, FFA)” value in data set [2] (right eye of Mouse 1 and Mouse 2, drug delivered by 40 kHz ultrasound, days 13 and 21) is recorded as “no injury of retina”.
With `Cc1cc2nc3c(=O)[nH]c(=O)nc-3n(C[C@H](O)[C@H](O)[C@H](O)COP(=O)(O)O)c2cc1C` [Riboflavin-5-Phosphate], the “concentration delivered into porcine corneas compared with typical Dresden protocol (30 minutes instillation)” value in data set [3] is “reached the therapeutic threshold”.
